Experimental data: patent publication US10688084B2 (priority 2016, dated 2020)
Like-named read-outs stand apart in the source and are kept apart here.

Columns and labels:
[1] = system: Wistar rats; assay: Acute (carrageenin) paw edema, anti-inflammatory activity in vivo; design: species or system rat; settings: for ED50: Rattus norvegicus, read-out: ED50 acute inflammation; for Paw volume 0 / Paw volume 3 h: in mL (unit assumed); for Anti-inflammatory effect, %: control = 100.00
Protocol: The experiment was carried out using female and male Wistar rats aged 6-7 weeks with a body mass of 180-220 g. The number of animals in each group was 10.
The acute inflammatory reaction (edema) was reproduced by subplantar (under plantar or plantar aponeurosis) administration of 0.1 ml of 1% carrageenin solution (sulfated polysaccharide from Irish sea moss). The severity of the inflammatory reaction was assessed 3 hours after the induction of inflammation by a change in the volume of the paw (oncometric). The substance of formula I was administered into the stomach with the probe 1 hour before the introduction of the 1% solution of carrageenin. A 0.5% Tween-80 solution was used as a negative control. The anti-inflammatory effect, assessed by a decrease in edema, was expressed as a percentage of the control. According to the results of the action of four doses of the analyte, the calculation of ED50 was performed.
The introduction to rats was carried out in the amount of no more than 1 ml/100 g. The concentration of the resulting solution was 5 mg/ml.
Animals were euthanized by inhalation of carbon dioxide.

[2] = system: Wistar rats; format: in vivo
Protocol: In the study of antipyretic properties of the formula I compound, were taken female and male Wistar rats aged 6-7 weeks, with a body mass of 180-220 g. The number of animals in each group was 10.
The febrile reaction was caused by subcutaneous administration of a 20% suspension of baking yeast. The rectal temperature was measured with an electrothermometer prior to the introduction of yeast and 18 hours after it (the difference of these measurements is the estimated hyperthermic reaction). The preparation was administered to animals at the peak of hyperthermia once (after 18 hours). The antipyretic effect was evaluated by hyperthermia decrease 2 hours after the injection of the test substance, and then the effect dynamics was recorded at hourly intervals for 7 hours.
The introduction to rats was carried out in the amount of no more than 1 ml/100 g. The concentration of the resulting solution was 7.5 mg/ml.
The difference in temperature after preparation administration and after 18 hours of induction with yeast was taken as the parameter of hyperthermia decrease.
Animals were observed individually after administration throughout the study. […] Wilcoxon nonparametric criterion was used for statistical comparison of experimental groups. Differences were determined at the 0.05 level of significance. The statistical analysis was carried out using the R-studio program.

[3] = mean value without sex distinction
[4] = female rats, 5 mg/kg intragastric
[5] = female rats, 10 mg/kg intragastric
[6] = female rats, 20 mg/kg intragastric
[7] = female rats, 50 mg/kg intragastric
[8] = male rats, 5 mg/kg intragastric
[9] = male rats, 10 mg/kg intragastric
[10] = male rats, 20 mg/kg intragastric
[11] = male rats, 50 mg/kg intragastric

COc1ccc2cc([C@H](C)C(=O)OCc3cnc(C)c(OC(=O)[C@@H](C)c4ccc5cc(OC)ccc5c4)c3COC(=O)[C@@H](C)c3ccc4cc(OC)ccc4c3)ccc2c1 [Compound of formula I, 3-((S)-2-(6-methoxynaphth-2-yl)propanoiloxy)-4,5-bis (((S)-2-(6-methoxinaphtht-2-yl)propanoiloxy)methyl)-2-methylpyridinium (S)-2-(6-methoxynaphth-2-yl) propanoate]
ED50 ([1]; females): 14 mg/kg | ED50 ([1]; males): 23 mg/kg | ED50 [1, 3]: 18.5 mg/kg | Inflammatory edema decreased by, vs control group ([1]; female rats, 5 mg/kg): 13.37% | Paw volume 0 [1, 4]: 1.00 ± 0.03 | Paw volume 3 h [1, 4]: 1.94 ± 0.20 | Anti-inflammatory effect, % ([1]; female rats, 5 mg/kg): 86.63 ± 17.71% | Inflammatory edema decreased by, vs control group ([1]; female rats, 10 mg/kg): 38.64% | Paw volume 0 [1, 5]: 0.96 ± 0.06 | Paw volume 3 h [1, 5]: 1.60 ± 0.16 | Anti-inflammatory effect, % ([1]; female rats, 10 mg/kg): 61.36 ± 17.12% | Inflammatory edema decreased by, vs control group ([1]; female rats, 20 mg/kg): 67.89% | Paw volume 0 [1, 6]: 0.91 ± 0.09 | Paw volume 3 h [1, 6]: 1.23 ± 0.20 | Anti-inflammatory effect, % ([1]; female rats, 20 mg/kg): 32.11 ± 15.06% | Inflammatory edema decreased by, vs control group ([1]; female rats, 50 mg/kg): 65.47% | Paw volume 0 [1, 7]: 0.91 ± 0.05 | Paw volume 3 h [1, 7]: 1.26 ± 0.23 | Anti-inflammatory effect, % ([1]; female rats, 50 mg/kg): 34.53 ± 18.52% | Inflammatory edema decreased by, vs control group ([1]; male rats, 5 mg/kg): 12.39% | Paw volume 0 [1, 8]: 0.89 ± 0.07 | Paw volume 3 h [1, 8]: 1.87 ± 0.21 | Anti-inflammatory effect, % ([1]; male rats, 5 mg/kg): 87.61 ± 19.75% | Inflammatory edema decreased by, vs control group ([1]; male rats, 10 mg/kg): 23.57% | Paw volume 0 [1, 9]: 0.93 ± 0.06 | Paw volume 3 h [1, 9]: 1.84 ± 0.23 | Anti-inflammatory effect, % ([1]; male rats, 10 mg/kg): 76.43 ± 22.74% | Inflammatory edema decreased by, vs control group ([1]; male rats, 20 mg/kg): 51.25% | Paw volume 0 [1, 10]: 0.93 ± 0.05 | Paw volume 3 h [1, 10]: 1.51 ± 0.16 | Anti-inflammatory effect, % ([1]; male rats, 20 mg/kg): 48.75 ± 16.39% | Inflammatory edema decreased by, vs control group ([1]; male rats, 50 mg/kg): 62.34% | Paw volume 0 [1, 11]: 1.04 ± 0.20 | Paw volume 3 h [1, 11]: 1.54 ± 0.45 | Anti-inflammatory effect, % ([1]; male rats, 50 mg/kg): 37.66 ± 19.16% | ED50 acute inflammation [1, 3]: 19 mg/kg | Antipyretic action ([2]; 20 mg/kg, both males and females): no antipyretic action was observed | Δ t after 2 hours, (M ± SD) ([2]; 20 mg/kg, females): −0.07 | Δ t after 3 hours, (M ± SD) ([2]; 20 mg/kg, females): −0.27 | Δ t after 4 hours, (M ± SD) ([2]; 20 mg/kg, females): −0.35 | Δ t after 5 hours, (M ± SD) ([2]; 20 mg/kg, females): 0.34 | Δ t after 6 hours, (M ± SD) ([2]; 20 mg/kg, females): −0.01 | Δ t after 7 hours, (M ± SD) ([2]; 20 mg/kg, females): −0.08 | Δ t after 2 hours, (M ± SD) ([2]; 20 mg/kg, males): 0.13 | Δ t after 3 hours, (M ± SD) ([2]; 20 mg/kg, males): 0.24 | Δ t after 4 hours, (M ± SD) ([2]; 20 mg/kg, males): 0.02 | Δ t after 5 hours, (M ± SD) ([2]; 20 mg/kg, males): 0.1 | Δ t after 6 hours, (M ± SD) ([2]; 20 mg/kg, males): −0.21 | Δ t after 7 hours, (M ± SD) ([2]; 20 mg/kg, males): 0.04 | Level of temperature decrease ([2]; 50 mg/kg, 3-4 hours after administration): 0.34-0.97 °C | Δ t after 2 hours, (M ± SD) ([2]; 50 mg/kg, females): 0.87 | Δ t after 3 hours, (M ± SD) ([2]; 50 mg/kg, females): 0.91 | Δ t after 4 hours, (M ± SD) ([2]; 50 mg/kg, females): 0.66 | Δ t after 5 hours, (M ± SD) ([2]; 50 mg/kg, females): 0.53 | Δ t after 6 hours, (M ± SD) ([2]; 50 mg/kg, females): 0.61 | Δ t after 7 hours, (M ± SD) ([2]; 50 mg/kg, females): 0.5 | Temperature lower than before the introduction by ([2]; 50 mg/kg, females, 2 and 3 hours after introduction): 0.9 °C | Temperature decrease ([2]; 50 mg/kg, females, 4, 5, 6 and 7 hours after introduction): 0.5-0.7 °C | Δ t after 2 hours, (M ± SD) ([2]; 50 mg/kg, males): 0.22 | Δ t after 3 hours, (M ± SD) ([2]; 50 mg/kg, males): 0.36 | Δ t after 4 hours, (M ± SD) ([2]; 50 mg/kg, males): 0.39 | Δ t after 5 hours, (M ± SD) ([2]; 50 mg/kg, males): 0.25 | Δ t after 6 hours, (M ± SD) ([2]; 50 mg/kg, males): 0.11 | Δ t after 7 hours, (M ± SD) ([2]; 50 mg/kg, males): 0.09 | Δ t after 2 hours, (M ± SD) ([2]; 75 mg/kg, females): 0.9 | Δ t after 3 hours, (M ± SD) ([2]; 75 mg/kg, females): 0.96 | Δ t after 4 hours, (M ± SD) ([2]; 75 mg/kg, females): 1.39 | Δ t after 5 hours, (M ± SD) ([2]; 75 mg/kg, females): 1.52 | Δ t after 6 hours, (M ± SD) ([2]; 75 mg/kg, females): 1.51 | Δ t after 7 hours, (M ± SD) ([2]; 75 mg/kg, females): 1.17 | Δ t after 2 hours, (M ± SD) ([2]; 75 mg/kg, males): 0.76 | Δ t after 3 hours, (M ± SD) ([2]; 75 mg/kg, males): 1.15 | Δ t after 4 hours, (M ± SD) ([2]; 75 mg/kg, males): 1.38 | Δ t after 5 hours, (M ± SD) ([2]; 75 mg/kg, males): 1.31 | Δ t after 6 hours, (M ± SD) ([2]; 75 mg/kg, males): 0.96 | Δ t after 7 hours, (M ± SD) ([2]; 75 mg/kg, males): 0.92 | Temperature less than before the introduction for ([2]; 75 mg/kg, throughout the experiment): 0.76-1.5 °C
